Where two headings read alike, the source gives them in different places. *1 amine or outer side, *2 acyl side, *3 side chain or, on linkers, in order; H or OH if unused. Where a SMILES comes first, the peptide text is derived from it. Side-chain parts run from the residue outwards. [ ]: non-standard residue; d: D form. The star is where a group is joined. αMePhe(2-F) = C[C@](N)(Cc1ccccc1F)C(=O)O; γGlu = O=C(O)[C@H](CCC(=O)[*:2])N[*:1]; C14 diacid = O=C(O)CCCCCCCCCCCCC(=O)*; αMeY = C[C@](N)(Cc1ccc(O)cc1)C(=O)O; 4Pal = N[C@@H](Cc1ccncc1)C(=O)O; αMeL = CC(C)C[C@](C)(N)C(=O)O; Orn = NCCC[C@H](N)C(=O)O; AEEA = NCCOCCOCC(=O)O; Aib = CC(C)(N)C(=O)O
Assays:
Assay type in all cases: cell-based
[1] = target: T1, hGIPR (Homo sapiens, UniProt P48546); assay: Functional cAMP formation (HTRF) in HEK-293 clonal cells expressing hGIPR, 0.1% bovine casein, without or with 1.0% human serum albumin; conditions: for EC50: geometric mean, read-out: hGIPR EC50, nM (SEM, n); for Emax: read-out: hGIPR Emax, % ± SEM
T1 construct: expressed in transfected cells
T1 sequence (P48546 22-466): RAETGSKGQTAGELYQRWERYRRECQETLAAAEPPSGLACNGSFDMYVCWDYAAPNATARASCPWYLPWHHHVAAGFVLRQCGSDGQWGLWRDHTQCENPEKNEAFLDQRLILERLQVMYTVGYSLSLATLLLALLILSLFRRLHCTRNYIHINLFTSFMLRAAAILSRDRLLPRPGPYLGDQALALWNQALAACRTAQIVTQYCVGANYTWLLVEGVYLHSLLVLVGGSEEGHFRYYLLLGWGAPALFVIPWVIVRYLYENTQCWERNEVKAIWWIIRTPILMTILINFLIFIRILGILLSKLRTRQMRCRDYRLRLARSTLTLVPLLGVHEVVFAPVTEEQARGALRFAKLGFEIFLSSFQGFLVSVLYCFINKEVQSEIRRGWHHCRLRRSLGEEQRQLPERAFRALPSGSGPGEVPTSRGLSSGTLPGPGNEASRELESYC
Summary of the method: (§1)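 Cells were stimulated with peptide for 30 min at 37° C, then lysed in buffer carrying cAMP-d2 and anti-cAMP Eu3+-cryptate for a competitive HTRF read after at least 60 min at room temperature. The 665/620 nm ratio was converted to nM cAMP against a standard curve.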

[2] = target: hGLP-1R (Homo sapiens, UniProt P43220); assay: Functional cAMP formation (HTRF) in HEK-293 clonal cells expressing hGLP-1R, 0.1% bovine casein, without or with 1.0% human serum albumin; parameters: expressed in transfected cells; conditions: for EC50: geometric mean, read-out: hGLP-1R EC50, nM (SEM, n); for Emax: read-out: hGLP-1R Emax, % ± SEM
hGLP-1R, sequence (P43220 24-463): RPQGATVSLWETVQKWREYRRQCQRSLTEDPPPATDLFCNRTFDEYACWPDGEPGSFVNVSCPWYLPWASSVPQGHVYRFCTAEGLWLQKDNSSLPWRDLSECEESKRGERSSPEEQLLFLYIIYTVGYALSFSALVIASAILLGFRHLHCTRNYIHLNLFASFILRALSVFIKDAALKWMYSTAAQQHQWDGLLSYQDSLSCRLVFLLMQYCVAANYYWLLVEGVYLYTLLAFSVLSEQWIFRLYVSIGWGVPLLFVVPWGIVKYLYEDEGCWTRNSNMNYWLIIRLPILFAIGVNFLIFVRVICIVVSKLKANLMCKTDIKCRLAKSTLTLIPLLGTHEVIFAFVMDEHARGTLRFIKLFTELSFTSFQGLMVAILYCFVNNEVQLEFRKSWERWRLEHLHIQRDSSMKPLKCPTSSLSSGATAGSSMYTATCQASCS
Summary of the method: as §1

[3] = target: T2, hGCGR (Homo sapiens, UniProt P47871); assay: Functional cAMP formation (HTRF) in HEK-293 clonal cells expressing hGCGR, 0.1% bovine casein, without or with 1.0% human serum albumin; conditions: geometric mean, read-out: hGCGR EC50, nM (SEM, n)
T2 construct: expressed in transfected cells
T2 sequence (P47871 26-477): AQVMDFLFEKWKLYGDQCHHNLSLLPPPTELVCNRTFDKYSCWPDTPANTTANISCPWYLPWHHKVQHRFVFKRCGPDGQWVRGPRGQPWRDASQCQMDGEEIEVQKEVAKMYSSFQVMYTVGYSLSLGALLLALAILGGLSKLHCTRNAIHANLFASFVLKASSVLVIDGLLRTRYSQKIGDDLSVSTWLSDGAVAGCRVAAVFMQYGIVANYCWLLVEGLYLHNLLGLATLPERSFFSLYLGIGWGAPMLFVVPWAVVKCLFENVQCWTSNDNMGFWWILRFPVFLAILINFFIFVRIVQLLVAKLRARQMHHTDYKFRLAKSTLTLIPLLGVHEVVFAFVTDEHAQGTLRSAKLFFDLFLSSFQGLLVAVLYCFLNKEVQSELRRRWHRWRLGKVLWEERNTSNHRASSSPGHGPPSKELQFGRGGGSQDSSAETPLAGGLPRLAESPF
Summary of the method: as §1

[4] = 0.1% bovine casein and 1.0% human serum albumin, 37° C.
[5] = HEK293, 0.1% bovine casein and 1.0% human serum albumin, 37° C., percent of maximal response to GIP(1-42)NH2
[6] = HEK293, 0.1% bovine casein and 1.0% human serum albumin, 37° C., percent of maximal response to GLP-1(7-36)NH2
[7] = cAMP, incubated at 37° C., 0.1% bovine casein (no human serum albumin)
[8] = HEK293, percent of maximal response to GIP(1-42)NH2, 37° C., 0.1% bovine casein, arithmetic mean
[9] = HEK293, percent of maximal response to GLP-1(7-36)NH2, 37° C., 0.1% bovine casein, arithmetic mean

Row | Compound | EC50 [1, 4] [nM] | Emax [1, 5] [%] | EC50 [2, 4] [nM] | Emax [2, 6] [%] | EC50 [3, 4] [nM] | EC50 [3, 7] [nM] | EC50 [1, 7] [nM] | EC50 [2, 7] [nM] | Emax [1, 8] [%] | Emax [2, 9] [%]
1 | CC[C@H](C)[C@H](NC(=O)[C@H](CC(C)C)NC(=O)[C@](C)(Cc1ccc(O)cc1)NC(=O)[C@@H](CCC(=O)O)NC(=O)[C@@H](NC(=O)[C@H](Cc1ccccc1)NC(=O)[C@H](CCCN)NC(=O)C(C)(C)NC(=O)[C@H](CCC(N)=O)NC(=O)[C@H](C)NC(=O)[C@H](CCCCNC(=O)COCCOCCNC(=O)COCCOCCNC(=O)CC[C@H](NC(=O)CCCCCCCCCCCCC(=O)O)C(=O)O)NC(=O)[C@H](CCCN)NC(=O)[C@H](CC(=O)O)NC(=O)[C@H](CC(C)C)NC(=O)[C@](C)(CC(C)C)NC(=O)[C@@H](NC(=O)[C@H](CO)NC(=O)[C@H](Cc1ccncc1)NC(=O)[C@H](CC(=O)O)NC(=O)[C@H](CO)NC(=O)[C@@H](NC(=O)[C@](C)(Cc1ccccc1F)NC(=O)[C@@H](NC(=O)CNC(=O)[C@H](CCC(=O)O)NC(=O)C(C)(C)NC(=O)[C@@H](N)Cc1ccc(O)cc1)[C@@H](C)O)[C@@H](C)O)[C@@H](C)CC)[C@@H](C)CC)C(=O)N[C@@H](CCC(=O)O)C(=O)NCC(=O)NCC(=O)N[C@@H](CCCCNC(=O)COCCOCCNC(=O)COCCOCCNC(=O)CC[C@H](NC(=O)CCCCCCCCCCCCC(=O)O)C(=O)O)C(=O)N[C@@H](CO)C(=O)N[C@@H](CO)C(=O)NCC(=O)N[C@@H](C)C(=O)N1CCC[C@H]1C(=O)N1CCC[C@H]1C(=O)N1CCC[C@H]1C(=O)N[C@@H](CO)C(N)=O [Example 150] | 0.35 | 81.3 ± 3.18 | 11 | 100 ± 3.8 | > 9950 | > 9950 |  |  |  | 
2 | CC[C@H](C)[C@H](NC(=O)[C@H](CC(C)C)NC(=O)[C@](C)(Cc1ccc(O)cc1)NC(=O)[C@@H](CCC(=O)O)NC(=O)[C@@H](NC(=O)[C@H](Cc1ccccc1)NC(=O)[C@H](CCC(=O)O)NC(=O)C(C)(C)NC(=O)[C@H](CCC(N)=O)NC(=O)[C@H](C)NC(=O)[C@H](CCCCNC(=O)COCCOCCNC(=O)COCCOCCNC(=O)CC[C@H](NC(=O)CCCCCCCCCCCCC(=O)O)C(=O)O)NC(=O)[C@H](CCCN)NC(=O)[C@H](CC(=O)O)NC(=O)[C@H](CC(C)C)NC(=O)[C@](C)(CC(C)C)NC(=O)[C@@H](NC(=O)[C@H](CO)NC(=O)[C@H](Cc1ccncc1)NC(=O)[C@H](CC(=O)O)NC(=O)[C@H](CO)NC(=O)[C@@H](NC(=O)[C@](C)(Cc1ccccc1F)NC(=O)[C@@H](NC(=O)CNC(=O)[C@H](CCC(=O)O)NC(=O)C(C)(C)NC(=O)[C@@H](N)Cc1ccc(O)cc1)[C@@H](C)O)[C@@H](C)O)[C@@H](C)CC)[C@@H](C)CC)C(=O)N[C@@H](CCCN)C(=O)NCC(=O)NCC(=O)N[C@@H](CCCCNC(=O)COCCOCCNC(=O)COCCOCCNC(=O)CC[C@H](NC(=O)CCCCCCCCCCCCC(=O)O)C(=O)O)C(=O)N[C@@H](CO)C(=O)N[C@@H](CO)C(=O)NCC(=O)N[C@@H](C)C(=O)N1CCC[C@H]1C(=O)N1CCC[C@H]1C(=O)N1CCC[C@H]1C(=O)N[C@@H](CO)C(N)=O [Example 151] | 0.306 | 87.5 ± 3.78 | 17.3 | 112 ± 8.42 | > 9950 | > 9950 | 0.0197 | 0.546 |  | 
3 | CC[C@H](C)[C@H](NC(=O)[C@H](CC(C)C)NC(=O)[C@](C)(Cc1ccc(O)cc1)NC(=O)[C@@H](CCC(=O)O)NC(=O)[C@@H](NC(=O)[C@H](Cc1ccccc1)NC(=O)[C@H](CCC(=O)O)NC(=O)C(C)(C)NC(=O)[C@H](CCC(N)=O)NC(=O)[C@H](C)NC(=O)[C@H](CCCCNC(=O)COCCOCCNC(=O)COCCOCCNC(=O)CC[C@H](NC(=O)CCCCCCCCCCCCC(=O)O)C(=O)O)NC(=O)[C@H](CCCN)NC(=O)[C@H](CC(=O)O)NC(=O)[C@H](CC(C)C)NC(=O)[C@](C)(CC(C)C)NC(=O)[C@@H](NC(=O)[C@H](CO)NC(=O)[C@H](Cc1ccncc1)NC(=O)[C@H](CC(=O)O)NC(=O)[C@H](CO)NC(=O)[C@@H](NC(=O)[C@](C)(Cc1ccccc1F)NC(=O)[C@@H](NC(=O)CNC(=O)[C@H](CCC(=O)O)NC(=O)C(C)(C)NC(=O)[C@@H](N)Cc1ccc(O)cc1)[C@@H](C)O)[C@@H](C)O)[C@@H](C)CC)[C@@H](C)CC)C(=O)N[C@@H](CCC(=O)O)C(=O)NCC(=O)NCC(=O)N[C@@H](CCCCNC(=O)COCCOCCNC(=O)COCCOCCNC(=O)CC[C@H](NC(=O)CCCCCCCCCCCCC(=O)O)C(=O)O)C(=O)N[C@@H](CO)C(=O)N[C@@H](CO)C(=O)NCC(=O)N[C@@H](CCCN)C(=O)N1CCC[C@H]1C(=O)N1CCC[C@H]1C(=O)N1CCC[C@H]1C(=O)N[C@@H](CO)C(N)=O [Example 153] (H-Y[Aib]EGT[αMePhe(2-F)]TSD[4Pal]SI[αMeL]LD[Orn]K([AEEA-AEEA-γGlu-C14 diacid])AQ[Aib]EFI[dE][αMeY]LIEGGK([AEEA-AEEA-γGlu-C14 diacid])SSG[Orn]PPPS-NH2) | 1.15 | 94.1 ± 3.21 | 40.8 | 98.2 ± 5.4 | > 9950 | > 9950 | 0.0277 | 1.1 | 97.8 ± 2.74 | 91.8 ± 4.63
4 | CC[C@H](C)[C@H](NC(=O)[C@H](CC(C)C)NC(=O)[C@](C)(Cc1ccc(O)cc1)NC(=O)[C@@H](CCC(=O)O)NC(=O)[C@@H](NC(=O)[C@H](Cc1ccccc1)NC(=O)[C@H](CCC(=O)O)NC(=O)C(C)(C)NC(=O)[C@H](CCC(N)=O)NC(=O)[C@H](C)NC(=O)[C@H](CCCCNC(=O)COCCOCCNC(=O)COCCOCCNC(=O)CC[C@H](NC(=O)CCCCCCCCCCCCC(=O)O)C(=O)O)NC(=O)[C@H](CCCN)NC(=O)[C@H](CC(=O)O)NC(=O)[C@H](CC(C)C)NC(=O)[C@](C)(CC(C)C)NC(=O)[C@@H](NC(=O)[C@H](CO)NC(=O)[C@H](Cc1ccncc1)NC(=O)[C@H](CC(=O)O)NC(=O)[C@H](CO)NC(=O)[C@@H](NC(=O)[C@](C)(Cc1ccccc1F)NC(=O)[C@@H](NC(=O)CNC(=O)[C@H](CCC(=O)O)NC(=O)C(C)(C)NC(=O)[C@@H](N)Cc1ccc(O)cc1)[C@@H](C)O)[C@@H](C)O)[C@@H](C)CC)[C@@H](C)CC)C(=O)N[C@@H](CCC(=O)O)C(=O)NCC(=O)NCC(=O)N[C@@H](CCCCNC(=O)COCCOCCNC(=O)COCCOCCNC(=O)CC[C@H](NC(=O)CCCCCCCCCCCCC(=O)O)C(=O)O)C(=O)N[C@@H](CO)C(=O)N[C@@H](CO)C(=O)NCC(=O)N[C@@H](C)C(=O)N1CCC[C@H]1C(=O)N1CCC[C@H]1C(=O)N1CCC[C@H]1C(=O)N[C@@H](CCCN)C(N)=O [Example 154] |  | 93 ± 4.96 | 70.5 |  | > 9950 | > 9950 |  | 1.69 | 96.6 ± 3.26 | 
5 | CC[C@H](C)[C@H](NC(=O)[C@H](CC(C)C)NC(=O)[C@](C)(Cc1ccc(O)cc1)NC(=O)[C@@H](CCC(=O)O)NC(=O)[C@@H](NC(=O)[C@H](Cc1ccccc1)NC(=O)[C@H](CCC(=O)O)NC(=O)C(C)(C)NC(=O)[C@H](CCC(N)=O)NC(=O)[C@H](C)NC(=O)[C@H](CCCCNC(=O)COCCOCCNC(=O)COCCOCCNC(=O)CC[C@H](NC(=O)CCCCCCCCCCCCC(=O)O)C(=O)O)NC(=O)[C@H](CCCN)NC(=O)[C@H](CC(=O)O)NC(=O)[C@H](CC(C)C)NC(=O)[C@](C)(CC(C)C)NC(=O)[C@@H](NC(=O)[C@H](CO)NC(=O)[C@H](Cc1ccncc1)NC(=O)[C@H](CC(=O)O)NC(=O)[C@H](CO)NC(=O)[C@@H](NC(=O)[C@](C)(Cc1ccccc1F)NC(=O)[C@@H](NC(=O)CNC(=O)[C@H](CCC(=O)O)NC(=O)C(C)(C)NC(=O)[C@@H](N)Cc1ccc(O)cc1)[C@@H](C)O)[C@@H](C)O)[C@@H](C)CC)[C@@H](C)CC)C(=O)N[C@@H](CCC(=O)O)C(=O)NCC(=O)NCC(=O)N[C@@H](CCCCNC(=O)COCCOCCNC(=O)COCCOCCNC(=O)CC[C@H](NC(=O)CCCCCCCCCCCCC(=O)O)C(=O)O)C(=O)N[C@@H](CO)C(=O)N[C@@H](CO)C(=O)NCC(=O)N[C@@H](CCCN)C(=O)N1CCC[C@H]1C(=O)N1CCC[C@H]1C(=O)N1CCC[C@H]1C(=O)N[C@@H](CCCN)C(N)=O [Example 155] (H-Y[Aib]EGT[αMePhe(2-F)]TSD[4Pal]SI[αMeL]LD[Orn]K([AEEA-AEEA-γGlu-C14 diacid])AQ[Aib]EFI[dE][αMeY]LIEGGK([AEEA-AEEA-γGlu-C14 diacid])SSG[Orn]PPP[Orn]-NH2; N-terminus assumed) | 1.25 | 96.5 ± 1.04 | 34.6 |  | > 9950 | > 9950 | 0.0309 | 0.912 | 96.6 ± 7.55 | 99 ± 5.16
